Results on six molecules are retold here after ChEMBL document CHEMBL5055658, “Discovery of a Highly Potent and Selective Degrader Targeting Hematopoietic Prostaglandin D Synthase via In Silico Design” (J Med Chem, 2021).

Each structure is given as a SMILES string. Activity calls are given as the source filed them. The rule behind the calls is not given here.

Experiment [1] concerns the target T1, Protein cereblon/Hematopoietic prostaglandin D synthase (Homo sapiens, UniProt O60760+Q96SW2). In words: PROTAC activity at H-PGDS/CRBN in human KU812 cells assessed as H-PGDS degradation measured after 6 hrs by Western blot analysis. It is filed as cell-based. As to conditions: for DC50: ku812 cell line. A general note: In western blotting, separated proteins are transferred to a membrane and probed.

For experiment [2], the target named is T1, Protein cereblon/Hematopoietic prostaglandin D synthase. In words: PROTAC activity at H-PGDS/CRBN in human KU812 cells assessed as H-PGDS degradation measured after 24 hrs by Western blot analysis. It is filed as cell-based. The following applies: KU812 cell line.
Target sequence in this assay (O60760 whole entry, looked up): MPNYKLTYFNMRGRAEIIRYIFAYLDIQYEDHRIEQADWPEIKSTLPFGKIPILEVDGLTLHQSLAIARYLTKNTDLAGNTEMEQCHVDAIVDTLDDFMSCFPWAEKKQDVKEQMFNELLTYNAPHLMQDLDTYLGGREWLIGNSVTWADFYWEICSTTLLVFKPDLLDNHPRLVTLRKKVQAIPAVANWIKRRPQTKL
Target sequence in this assay (Q96SW2 whole entry, looked up): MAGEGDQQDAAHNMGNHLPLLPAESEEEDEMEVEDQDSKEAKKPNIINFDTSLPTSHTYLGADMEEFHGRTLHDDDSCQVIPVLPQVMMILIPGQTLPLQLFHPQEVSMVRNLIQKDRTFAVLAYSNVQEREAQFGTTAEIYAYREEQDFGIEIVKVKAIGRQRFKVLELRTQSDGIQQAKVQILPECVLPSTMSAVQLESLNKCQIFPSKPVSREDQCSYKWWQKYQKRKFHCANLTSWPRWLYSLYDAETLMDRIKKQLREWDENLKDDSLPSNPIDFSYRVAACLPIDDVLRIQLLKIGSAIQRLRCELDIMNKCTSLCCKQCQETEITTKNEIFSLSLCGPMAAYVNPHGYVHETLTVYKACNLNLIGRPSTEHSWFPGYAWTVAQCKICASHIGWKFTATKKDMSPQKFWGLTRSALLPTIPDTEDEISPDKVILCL
Experiment [3] has the same target. In words: PROTAC activity at H-PGDS/CRBN in human MEG01s cells assessed as H-PGDS degradation measured after 6 to 24 hrs by Western blot analysis. Type of experiment: cell-based. As to conditions: time 6-24 hrs.
Target sequence in this assay (O60760 whole entry, looked up): as the sequence (O60760 whole entry, looked up) above
Target sequence in this assay (Q96SW2 whole entry, looked up): as the sequence (Q96SW2 whole entry, looked up) above
Experiment [4] addresses Hematopoietic prostaglandin D synthase (Homo sapiens, UniProt O60760). As to the kind of experiment: Inhibition of H-PGDS (unknown origin) using fluorescent probe by competition binding assay.
Experiment [5] has as its system KU812. In words: Effect on H-PGDS mRNA level in human KU812 cells measured up to 10000 pM incubated for 6 hrs by quantitative RT-PCR analysis. It is filed as functional, cell-based.
For experiment [6], the target named is T1, Protein cereblon/Hematopoietic prostaglandin D synthase. In words: PROTAC activity at H-PGDS/CRBN in human KU812 cells assessed as H-PGDS degradation in presence of pomalidomide measured after 6 hrs by Western blot analysis. It is filed as cell-based. As to conditions: KU812 cell line.
Target sequence in this assay (O60760 whole entry, looked up): as the sequence (O60760 whole entry, looked up) above
Target sequence in this assay (Q96SW2 whole entry, looked up): as the sequence (Q96SW2 whole entry, looked up) above
The target is the same in experiment [7]. In words: PROTAC activity at H-PGDS/CRBN in human KU812 cells assessed as H-PGDS degradation in presence of MG132 at 100 pM measured after 6 hrs by Western blot analysis. It is filed as cell-based. The following applies: KU812 cell line.
Target sequence in this assay (O60760 whole entry, looked up): as the sequence (O60760 whole entry, looked up) above
Target sequence in this assay (Q96SW2 whole entry, looked up): as the sequence (Q96SW2 whole entry, looked up) above
The target is the same in experiment [8]. As to the kind of experiment: PROTAC activity at H-PGDS/CRBN in human KU812 cells assessed as H-PGDS degradation in presence of MLN7243 at 100 pM measured after 6 hrs by Western blot analysis. It is filed as cell-based. The following applies: KU812 cell line.
Target sequence in this assay (O60760 whole entry, looked up): as the sequence (O60760 whole entry, looked up) above
Target sequence in this assay (Q96SW2 whole entry, looked up): as the sequence (Q96SW2 whole entry, looked up) above
Experiment [9] shares this target. In words: PROTAC activity at H-PGDS/CRBN in human KU812 cells assessed as reduction in H-PGDS level at 100 pM measured after 6 hrs by Western blot analysis relative to control. Also on record: scale not given: the % may be the effect or the level left. It is filed as cell-based. The following applies: KU812 cell line.
Target sequence in this assay (O60760 whole entry, looked up): as the sequence (O60760 whole entry, looked up) above
Target sequence in this assay (Q96SW2 whole entry, looked up): as the sequence (Q96SW2 whole entry, looked up) above
The target is the same in experiment [10]. As to the kind of experiment: PROTAC activity at H-PGDS/CRBN in human KU812 cells assessed as reduction in H-PGDS level at 10 pM measured after 6 hrs by Western blot analysis relative to control. Type of experiment: cell-based. Also on record: scale not given: the % may be the effect or the level left. As to conditions: KU812 cell line.
Experiment [11] deals with KU812. As to the kind of experiment: Suppression of PGD2 production in human KU812 cells measured in presence of compound 43 up to 3000 pM incubated for 6 hrs by LC-MS analysis. Type of experiment: functional, cell-based.

Chain of Hematopoietic prostaglandin D synthase (O60760 whole entry): as the sequence (O60760 whole entry, looked up) above

What is called DC50 is the concentration giving 50% degradation. For orientation: IC50 means the concentration that gives 50% inhibition. With `O=C1CCC(N2C(=O)c3cccc(N4CCN(C(=O)C5CCN(c6ccc(NC(=O)c7cnc(Oc8ccccc8)nc7)cc6)CC5)CC4)c3C2=O)C(=O)N1` (stereo not given), the 50% degradation concentration (DC50) in experiment [1] is 0.0173 nM. Moreover, the result in experiment [2], in experiment [5], in [6], in [7] and in experiment [8] was inactive. Moreover, the result in experiment [3] and in experiment [11] was Active. This molecule also showed a half-maximal inhibitory concentration (IC50) in experiment [4] of 170 nM. For the same molecule, the values for the Activity in experiment [9] and in experiment [10] were 30.8% and 12.9%, respectively.
On to `Nc1cccc2c1C(=O)N(C1CCC(=O)NC1=O)C2=O` (stereo not given), for which the result in [11] was inactive.
`O=C1CCC(N2C(=O)c3cccc(NCCNC(=O)C4CCN(c5ccc(NC(=O)c6cnc(Oc7ccccc7)nc6)cc5)CC4)c3C2=O)C(=O)N1` (stereo not given): the inhibition result in experiment [4] is “inactive”.
As to `CN1C(=O)CCC(N2C(=O)c3cccc(N4CCN(C(=O)C5CCN(c6ccc(NC(=O)c7cnc(Oc8ccccc8)nc7)cc6)CC5)CC4)c3C2=O)C1=O` (stereo not given), the DC50 in [1] was 0.024 nM. Further, in [4], the IC50 came out at 140 nM. In experiment [11], the result was Active.
Regarding `O=C1CCC(N2C(=O)c3cccc(N4CCN(c5ccc(NC(=O)c6cnc(Oc7ccccc7)nc6)cc5)CC4)c3C2=O)C(=O)N1` (stereo not given), the result in experiment [1] (KU812 cell line) was inactive. In addition, the inhibition entry in experiment [4] was “inactive”.
With `O=C(Nc1ccc(N2CCC(C(=O)N3CCOCC3)CC2)cc1)c1cnc(Oc2ccccc2)nc1`, the IC50 in experiment [4] amounted to 170 nM. Besides, in experiment [11], the outcome was Active.
